This is an account of results in article doi:10.1101/2021.04.29.441652v1 (biorxiv, 2021).

Structures are written as SMILES.

The target in the assay is human σ2 receptor (TMEM97) (Homo sapiens, UniProt Q5BJF2). The assay is described as follows: biochemical. In kind it is Expi293 membranes. The conditions noted are these: read-out: % of control remaining.
human σ2 receptor (TMEM97), sequence (Q5BJF2 whole entry): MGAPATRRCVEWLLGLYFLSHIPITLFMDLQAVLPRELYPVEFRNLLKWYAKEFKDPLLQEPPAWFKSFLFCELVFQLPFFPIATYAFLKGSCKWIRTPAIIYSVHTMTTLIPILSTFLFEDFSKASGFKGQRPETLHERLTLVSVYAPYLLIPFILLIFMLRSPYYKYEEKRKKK
For `C[C@@H]1C[C@@H](c2ccccc2)CCN1Cc1nc(C2CC2)cs1` [ZINC000439311985], the remaining activity at 1 µM is 106%. Consider `Cc1ccc(CN2[C@@H]3CC[C@H]2[C@@H](NC(=O)c2cn(C)cn2)C3)c(C)c1` [ZINC001095312060], for which the remaining activity at 1 µM turned out to be 69.4%. On to `Cc1ccc(C(=O)NC[C@H]2CN(C(=O)[C@@H]3CCN(C)C3)CCCO2)o1` [ZINC001019525589], for which the remaining activity at 1 µM was 85%. As for `O=C(NCC1CN(CCC2CCCC2)C1)C1(c2cccnc2)CC1` [ZINC001391502525], the figure is 43.6%; as for `CCc1nnsc1C(=O)NCC1CN(C(=O)[C@H]2CCCN2C)C1` [ZINC001003018745], 85.7%. Consider `C[C@@H]1CCCN1CC(=O)NCC(=O)N[C@H](C)c1ccc(F)cc1` [ZINC000245453841], for which the remaining activity at 1 µM amounted to 114%.

On to `COc1cccnc1CN[C@H](Cc1ccc(C)cc1)C1CC1` [ZINC000453351921], for which the remaining activity at 1 µM was determined as 69.2%. With `O[C@H]1c2ccccc2C[C@H]1N1Cc2cccc(Cl)c2C1` [ZINC000287374567], the remaining activity at 1 µM amounted to 114%. In the case of `Cc1ccc([N+](=O)[O-])cc1[C@H](C)N1C[C@H]2CCC[C@@H]2C1` [ZINC000182842742], the remaining activity at 1 µM was found to be 36.1%. As for `C[C@H](C(=O)N[C@H]1C[C@H]2CC[C@@H]1N2CCn1cccn1)c1ccccc1F` [ZINC001096194954], the remaining activity at 1 µM stood at 118%.

On to `C[C@H](NC(=O)c1ccc2[nH]c(=O)c(=O)[nH]c2c1)[C@H](O)c1ccccc1` [ZINC000813849560], for which the remaining activity at 1 µM was found to be 108%. For the compound `C[C@H](COc1ccc(Cl)c(Cl)c1)N[C@@H](C)Cn1cncn1` [ZINC000296612417], the remaining activity at 1 µM came to 59.2%. For the compound `O[C@@H](CN1CC[C@@H](c2ccccc2F)C1)CC1(O)CCCCC1` [ZINC000878084395], the remaining activity at 1 µM came out at 27.7%. For the compound `COCCN1CCC[C@@H]1CNC(=O)C(=O)N1CCC[C@@H](C(C)C)CC1` [ZINC000557493019], the remaining activity at 1 µM is 113%.

Regarding `CN(C(=O)C[C@@H]1CSCCN1)[C@@H]1CCCN(c2cccnn2)C1` [ZINC000133744458], the remaining activity at 1 µM worked out at 65.7%. Consider `CCc1cccc(C)c1NC(=O)CN1C[C@@H](N2CCCC2)C[C@H]1C` [ZINC000285725404], for which the remaining activity at 1 µM came out at 115%. Regarding `O=C1NCCC[C@@H]1N1CC[C@@](O)(c2ccc(F)cc2)C1` [ZINC000777733869], the remaining activity at 1 µM is 108%. On to `O=C(NCC1CN(C(=O)[C@H]2CC[C@H]3CCCCN32)C1)c1cnccn1` [ZINC001000730978], for which the remaining activity at 1 µM amounted to 81.3%. With `NC(=O)c1ccccc1N1CC[C@H](NC(=O)CC2CCNCC2)C1` [ZINC000378210510], the remaining activity at 1 µM stood at 95.3%. As for `COc1ccc2c(c1)C[C@H](CN1CCCC[C@H]1CCC(=O)OC(C)(C)C)O2` [ZINC001195393353], the figure is 54.5%; as for `C[C@@H]1OCC[C@]1(C)NC(=O)CCc1nc2c(O)nc(=O)n(C)c2[nH]1` [ZINC000345525893], 90.8%. On to `Cc1cccc(C[C@H](CO)NCc2cnc(C3CCCCC3)s2)c1` [ZINC000526962900], for which the remaining activity at 1 µM worked out at 60.7%.

Consider `CCCCNC(=O)[C@H](C)N1CC[C@](C)(CNC(=O)OC(C)(C)C)C1` [ZINC000495656270], for which the remaining activity at 1 µM was determined as 45.1%. As to `NC(=O)[C@@H]1CCC[C@@H](C(=O)NCC2(O)CN(C(=O)C3CCC3)C2)C1` [ZINC001046939982], the remaining activity at 1 µM worked out at 110%. As to `COCCOCc1cccc(NC(=O)NCC2(C)CCN(C)CC2)c1` [ZINC000679555790], the remaining activity at 1 µM stood at 103%. Take `Cc1cccc2c1CCN2C(=O)[C@@H]1CC[C@H]2CCCC[C@@H]2N1` [ZINC001579778746]: the remaining activity at 1 µM is 19.6%. Turning to `CS[C@@H]1CCN(C[C@@H](O)COC(c2ccc(F)cc2)c2ccc(F)cc2)C1` [ZINC000451319844], the remaining activity at 1 µM is 63%. In the case of `Cc1cc(C(=O)CN2CC[C@@H]([C@H]3CCCO3)C2)c(C)n1C1CC1` [ZINC000886836194], the remaining activity at 1 µM was determined as 24.1%. As to `CCC(C)(C)N1CCN(c2nc(N)nc(C(F)(F)C(F)(F)F)n2)CC1` [ZINC000894427229], the remaining activity at 1 µM is 38.7%.

Consider `NC(=O)C(=O)N1CCC(O)(CNC(=O)[C@H]2CCCCC2(F)F)CC1` [ZINC001074702922], for which the remaining activity at 1 µM turned out to be 109%. `Cc1cccc2sc(N3CCN(CCO)[C@H](C)C3)nc12` [ZINC000893277758]: the remaining activity at 1 µM came to 95.1%.

Regarding `C[C@@H]1COCC[C@@H]1NCCc1c[nH]c2cccc(Br)c12` [ZINC000289897491], the remaining activity at 1 µM stood at 51%. On to `COC(=O)N1CCC[C@H](NC(=O)C(=O)N2CC[C@@](O)(C3CC3)C2)C1` [ZINC001323717111], for which the remaining activity at 1 µM stood at 95%. As for `CCO[C@@H](CC(=O)N1CCCN(C2CCCC2)CC1)C1=CCCC1` [ZINC000362611503], the remaining activity at 1 µM was determined as 27.8%. Next, `C[C@H](Cn1cc(Br)cn1)NCc1cn2cc(Cl)ccc2n1` [ZINC000131571127]: 76.6%; `COC(=O)C[C@H]1CCCN1C[C@@H](O)Cc1cccc(Cl)c1` [ZINC000287581634]: 111%. As for `Cc1cc([N+](=O)[O-])ccc1NC(=O)CN1CCC[C@@H]([C@@H]2CCCCO2)C1` [ZINC000595790972], the figure is 96.1%; as for `C[C@@H]1CCC[C@H](NC(=O)CN2CCN(CCC3=CCCCC3)CC2)C1` [ZINC000450551910], 16%; as for `CCC(CC)n1ccc(CN2CC=C(c3ccc(O)cc3)CC2)n1` [ZINC000448446275], 38.7%. For the compound `Cc1noc(-c2cccnc2NC2CCC(N3CCCCC3)CC2)n1` (stereo not shown) [ZINC000080247921], the remaining activity at 1 µM was found to be 24.7%. Consider `CCOC(=O)[C@@H]1CCN(C[C@@H](O)COc2cccc(C)c2)C1` [ZINC000932649435], for which the remaining activity at 1 µM stood at 69.5%.

For the compound `COc1ccc(C(=O)N2CC[C@H](N3CCCC3)[C@@H]2C)nc1Cl` [ZINC000805335094], the remaining activity at 1 µM is 133%.

As to `O[C@H](CN[C@@H]1CCc2ccccc2OC1)COc1c(Cl)cccc1Cl` [ZINC000801571276], the remaining activity at 1 µM amounted to 37.6%. Consider `Cc1cc(C)nc(C(=O)N2CC[C@H]2CNC(=O)[C@@H]2CCN(C)C2)c1` [ZINC000950078544], for which the remaining activity at 1 µM was 108%. Regarding `COCCOc1ccc(NC(=O)C(=O)N2C[C@H]3CN(C)C[C@H]3C2)cn1` [ZINC000279187431], the remaining activity at 1 µM was determined as 105%. Consider `Cc1nn(Cc2ccc(F)cc2)c(Cl)c1CNC[C@@]1(O)CCN(C)C1` [ZINC000762555244], for which the remaining activity at 1 µM worked out at 84.1%.

For `CCCN1CCC[C@H]1C(=O)NCc1cnccc1C(F)(F)F` [ZINC000621202771], the remaining activity at 1 µM is 61.4%. For `Cc1ccccc1CN[C@H]1C[C@H](NC(=O)c2cn(C)c(=O)nc2O)C1` [ZINC001021041334], the remaining activity at 1 µM was found to be 86.2%.

Take `Cc1c(C(=O)NCC2CCCC2)cnc2c1c(=O)n(C)c(=O)n2C` [ZINC000438905691]: the remaining activity at 1 µM turned out to be 105%. Regarding `Cc1ccnc2nc(C(=O)N3CCN(CCN4CCCC4)CC3)nn12` [ZINC000518759550], the remaining activity at 1 µM amounted to 115%. Regarding `CC1(C)[C@H](NC(=O)[C@]2(O)CCN(Cc3ccccc3)C2)[C@@H]2CCCO[C@@H]21` [ZINC000531059007], the remaining activity at 1 µM was determined as 87.5%. Regarding `Cn1nccc1C(=O)N1C[C@@H](O)[C@H](NC(=O)c2c[nH]nc2C2CC2)C1` [ZINC001025444165], the remaining activity at 1 µM worked out at 95.7%. As for `CN(Cc1cc(F)cc(F)c1)C(=O)C(=O)N1CC[C@H](N2CC=CC2)C1` [ZINC000410783840], the remaining activity at 1 µM came to 103%. As for `Brc1ccccc1-n1cc(CN2CC[C@@H]3CCC[C@@H]32)nn1` [ZINC000685844120], the figure is 51.3%; as for `CCc1c(C(=O)N[C@@H]2CN(C(=O)c3n[nH]cc3C)C[C@@H]2O)cnn1C` [ZINC000968717635], 94.6%; as for `CC[C@H](C)CNC[C@H]1CCC[C@H]1NS(C)(=O)=O` [ZINC000245533477], 98.5%. Turning to `CCC(=O)N1CCN([C@H]2CCN(C(=O)c3c[nH]c(=O)cn3)C2)CC1` [ZINC000956566890], the remaining activity at 1 µM was found to be 112%. Next, `COC(=O)[C@@H]1C[C@H](O)CN(C(=O)C(=O)N[C@H](C)C2CCOCC2)C1` [ZINC001326422624]: 99.2%; `C[C@H]1CN/C(=N/CCCc2c(Cl)cccc2Cl)N1` [ZINC000849049798]: 8.7%. `Cn1nnc2c(N3C[C@H]4CC[C@@H](C3)N4C(=O)c3cc[nH]n3)ncnc21` [ZINC001058732454]: the remaining activity at 1 µM worked out at 93.6%.

As to `O=C([C@@H]1CCc2nnc(O)n2C1)N1CC(CNC(=O)C(F)(F)F)C1` [ZINC001363211634], the remaining activity at 1 µM worked out at 78.6%. Regarding `C[C@]1(c2ccccc2)CCCN(CC(=O)N2CCc3ccccc32)C1` [ZINC000500192494], the remaining activity at 1 µM was 69.3%. Next, `Cc1cc(C)cc(NC(=O)[C@H](C)N2CC[C@@H](C3CCOCC3)C2)c1` [ZINC000374368469]: 5.8%; `CN1CC[C@@H](C(=O)NC[C@H]2CN(Cc3csnn3)CCCO2)C1` [ZINC001073886256]: 113%. For `O=C(NC1CCCCC1)C(=O)NC1CCN(C[C@H]2CCCO2)CC1` [ZINC000774469834], the remaining activity at 1 µM was determined as 83.3%.

`CC(C)CC(=O)N[C@@H](C(=O)N1CCC[C@H](N2CCCC2)C1)c1ccccc1` [ZINC000332414923]: the remaining activity at 1 µM amounted to 87.2%. As to `C[C@H](C(=O)NCc1cc(Br)cs1)N1CCCCCC1` [ZINC000074484650], the remaining activity at 1 µM was determined as 86.9%.

Regarding `O=C(CCc1cc(Br)ccc1F)N1CC[C@@H](CN2CCCC2)C1` [ZINC000135482356], the remaining activity at 1 µM is 21.7%. As for `CC(C)C1CN(C[C@@H](O)COC(c2ccccc2)c2ccccc2)C1` [ZINC000684607185], the figure is 17.3%; as for `CCc1ccnc(CNC(=O)C(=O)N[C@@H]2C[C@H](C)N(C3CC3)C2)c1` [ZINC000358071102], 113%.
